Laboratory results as given in article PMC4512239 (Clinical cancer research : an official journal of the …, 2015).

Test: [14C]-AZD2014 metabolism and excretion after a single dose in rats
Format: in vivo

## CNC(=O)c1cccc(-c2ccc3c(N4CCOC[C@@H]4C)nc(N4CCOC[C@@H]4C)nc3n2)c1 [AZD2014]
  faecal excretion, % of dosed radioactivity: ~85%
  urinary excretion, % of dosed radioactivity: approximately 2%
